Laboratory results reported in patent US12391660B2, “Heteroaromatic acetamide derivative, and preparation and use thereof” (Hangzhou Westan Pharmaceutical Technology Co., Ltd, priority 2019, dated 2025).
pIC50: −log10 of the molar value.

Biological target: human TRPA1 (Homo sapiens (Human), UniProt O75762)
Assay: FLIPR assay of inhibitory activity on human TRPA1 (calcium ion flux fluorescence)
Type: cell-based
Details: HEK293 cells stably expressing human TRPA1
Description: 1. FLIPR Assay of Inhibitory Activity on Human TRPA1
A calcium ion flux fluorescence method (FLIPR assay) was adopted to measure the inhibitory activity of compounds on human TRPA1 channel. The literature reports of Lee and Chen et al. may be referred to for the method [Lee et al. Br J Pharmacol 2008, 153 (8): 1739-1749] [Chen et al. Pain 2011, 152(5):1165-72].
A HEK293 recombinant cell strain stably expressing human TRPA1 (Creative Biogene, NY) was cultured in DMEM (Thermo Fisher Scientific, Shanghai) medium (containing 10% calf serum, 5 μg/ml Blasticidin and 400 ug/ml G418). The incubator was under a condition of 37° C. and air humidity with 5% CO2.
TRPA1 cells were seeded in a 96-well analysis plate at a density of 75,000 cells per well (100 ul/well), and cultured overnight in an incubator at 37° C. and 5% CO2. On the second day, incubation was continued overnight under the same condition to induce the expression of TRPA1 after the culture medium in each well was poured out and a fresh supplement with the same culture medium containing 0.1 μg/ml Tetracycline was added. The further next day, the culture medium was pour out, a DMEM culture solution (also containing 2.5 mM Probenicid) containing 5 μM Fluo-4 AM (Molecular Probes) was added to each well, and incubation was conducted at 37° C. for 1 hour.
The compound was dissolved in 100% DMSO to prepare a 30 mM stock solution which was stored at −20° C. On the day of use, the compound stock solution was thawed at room temperature. Each compound was subjected to 1:5 serial dilution using DMSO medium at a starting concentration of 30 μM with 9 concentration points on a 96-well plate. Each compound was diluted in duplicate for testing. Ruthenium Red was used as the positive control compound and the same dilution was carried out at a starting concentration of 3 μM.
The cell analysis plate was placed in an FLIPR instrument […], and the compound in the compound plate was added to the corresponding hole on the cell analysis plate (First addition) via an automatic program, and the calcium ion fluorescence signal was recorded to determine whether the compound had agonistic activity. After 10 minutes, CaCl2 (Second addition) was added a final concentration of 3 mM to each well to stimulate intracellular calcium flux signals. Ca^++-dependent fluorescence signal was monitored continuously at 538 nm wavelength to analyze the inhibitory activity of the compounds.
The data was collected and analyzed using a FLIPR program. The fluorescence peak value was used to evaluate the inhibitory (or agonistic) activity of the compounds at each concentration. EXCEL and PRISM programs were used to calculate the IC50 value of the compounds.

human TRPA1, sequence (O75762 whole entry): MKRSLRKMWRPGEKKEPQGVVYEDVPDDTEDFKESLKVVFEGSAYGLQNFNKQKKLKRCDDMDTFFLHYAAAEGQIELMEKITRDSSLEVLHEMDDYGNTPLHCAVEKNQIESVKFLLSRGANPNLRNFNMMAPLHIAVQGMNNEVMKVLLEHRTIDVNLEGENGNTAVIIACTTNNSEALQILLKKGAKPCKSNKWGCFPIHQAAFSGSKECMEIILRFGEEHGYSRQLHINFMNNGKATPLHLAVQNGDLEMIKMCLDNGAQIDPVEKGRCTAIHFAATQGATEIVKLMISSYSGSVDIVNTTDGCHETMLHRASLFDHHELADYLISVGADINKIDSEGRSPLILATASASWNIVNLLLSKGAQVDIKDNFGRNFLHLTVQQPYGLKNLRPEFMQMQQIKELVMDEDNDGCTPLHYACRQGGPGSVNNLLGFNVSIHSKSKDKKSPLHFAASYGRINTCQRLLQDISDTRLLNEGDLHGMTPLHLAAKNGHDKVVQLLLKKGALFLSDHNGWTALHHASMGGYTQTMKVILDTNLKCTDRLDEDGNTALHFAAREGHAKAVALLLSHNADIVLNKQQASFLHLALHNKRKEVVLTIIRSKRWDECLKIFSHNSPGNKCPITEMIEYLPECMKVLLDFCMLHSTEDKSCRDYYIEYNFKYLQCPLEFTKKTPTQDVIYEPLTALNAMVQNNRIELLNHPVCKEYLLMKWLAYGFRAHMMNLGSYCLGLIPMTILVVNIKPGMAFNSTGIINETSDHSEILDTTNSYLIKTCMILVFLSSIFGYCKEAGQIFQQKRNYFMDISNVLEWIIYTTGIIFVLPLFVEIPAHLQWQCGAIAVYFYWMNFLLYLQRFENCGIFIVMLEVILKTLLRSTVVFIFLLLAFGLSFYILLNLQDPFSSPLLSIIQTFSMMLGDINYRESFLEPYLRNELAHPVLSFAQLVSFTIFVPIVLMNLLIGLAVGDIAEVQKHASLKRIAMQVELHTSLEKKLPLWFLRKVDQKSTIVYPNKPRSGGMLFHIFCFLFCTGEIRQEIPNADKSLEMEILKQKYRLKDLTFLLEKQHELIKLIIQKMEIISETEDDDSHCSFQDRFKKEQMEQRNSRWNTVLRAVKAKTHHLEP

Question: With “4-((3-(4-(3-trifluoromethyl) phenyl)piperazine-1-carbonyl) propane-2-yl)amino)benzo- nitrile [Compound 9]” as the compound, how does the pIC50 read?
Answer: 5.25

Question: How did the pIC50 turn out when `N#Cc1ccc(NC2(C(=O)N3CCN(c4cccc(C(F)(F)F)c4)CC3)CCCC2)cc1` [Compound 2, 4-((1-(4-(3-(trifluoromethyl)phenyl)piperazine-1-carbonyl)cyclopentyl)amino)benzo-nitrile] was run?
Answer: 6.98

Question: With `N#Cc1ccc(NC2(C(=O)N3CCN(c4ccccc4C(F)(F)F)CC3)CCCC2)cc1` [Compound 3, 4-((1-(4-(2-(trifluoromethyl)phenyl)piperazine-1-carbonyl)cyclopentyl)amino)benzo-nitrile] as the compound, how does the pIC50 read?
Answer: 5.80

Question: How did the pIC50 turn out when `N#Cc1ccc(NC2(C(=O)N3CCN(c4ccccc4OC(F)(F)F)CC3)CCCC2)cc1` [Compound 4, 4-((1-(4-(2-(trifluoromethoxy)phenyl)piperazine-1-carbonyl)cyclopentyl)amino)benzo-nitrile] was run?
Answer: 6.82

Question: How did the pIC50 turn out when `N#Cc1ccc(NC2(C(=O)N3CCN(c4ccc(OC(F)(F)F)cc4)CC3)CCCC2)cc1` [Compound 5] was run?
Answer: 6.89

Question: How did the pIC50 turn out when `COc1cc(Cl)ccc1N1CCN(C(=O)C2(Nc3ccc(C#N)cc3)CCCC2)CC1` [Compound 6, 4-((1-(4-(4-chloro-2-methoxyphenyl)piperazine-1-carbonyl)cyclopentyl)amino)benzo-nitrile] was run?
Answer: 7.46

Question: With `Cc1cccc(N2CCN(C(=O)C3(Nc4ccc(C#N)cc4)CCCC3)CC2)c1` [Compound 7] as the compound, how does the pIC50 read?
Answer: 7.19

Question: How did the pIC50 turn out when `CCC(CC)(Nc1ccc(C#N)cc1)C(=O)N1CCN(c2cccc(C(F)(F)F)c2)CC1` [Compound 8] was run?
Answer: 6.25

Question: With `N#Cc1ccc(NC2(C(=O)N3CCN(c4ccc(C(F)(F)F)cn4)CC3)CCCC2)cc1` [Compound 10, 4-((1-(4-(5-(trifluoromethyl)pyridin-2-yl)piperazine-1-carbonyl)cyclopentyl)amino)benzonitrile] as the compound, how does the pIC50 read?
Answer: 7.49

Question: `N#Cc1ccc(NC2(C(=O)N3CCN(c4cccc(C(F)(F)F)n4)CC3)CC2)cc1` [Compound 12, 4-((1-(4-(6-(trifluoromethyl)pyridin-2-yl)piperazine-1-carbonyl)cyclopropyl)amino)ben zonitrile] was tested. Which pIC50 did it give?
Answer: 5.21

Question: `N#Cc1ccc(NC2(C(=O)N3CCN(c4cccc(C(F)(F)F)n4)CC3)CCC2)cc1` [Compound 13, 4-((1-(4-(6-(trifluoromethyl)pyridin-2-yl)piperazine-1-carbonyl)cyclobutyl)amino)benzo nitrile] was tested. Which pIC50 did it give?
Answer: 6.42

Question: How did the pIC50 turn out when `CC(C)(C)C(Nc1ccc(C#N)cc1)C(=O)N1CCN(c2cccc(C(F)(F)F)n2)CC1` (stereo not drawn) [Compound 14] was run?
Answer: 7.06

Question: `Cc1cccc(N2CCN(C(=O)C3(Nc4ccc(C#N)cc4)CCCC3)CC2)n1` [Compound 15, 4-((1-(4-(6-methylpyridin-2-yl)piperazine-1-carbonyl)cyclopentyl)amino)benzonitrile] was tested. Which pIC50 did it give?
Answer: 7.64

Question: `CN(C)C(=O)c1ccc(N2CCN(C(=O)C3(Nc4ccc(C#N)cc4)CCCC3)CC2)nc1` [Compound 16, 6-(4-(1-((4-cyano-phenyl)amino)cyclopentane-1-carbonyl)piperazine-1-yl)N, N-dimethylnicotinamide] was tested. Which pIC50 did it give?
Answer: 5.05

Question: How did the pIC50 turn out when `N#Cc1ccc(NC2(C(=O)N3CCN(c4ncc(C(F)(F)F)cn4)CC3)CCCC2)cc1` [Compound 17, 4-((1-(4-(5-(trifluoromethyl)pyrimidin-2-yl)piperazine-1-carbonyl)cyclopentyl)amino)ben zonitrile] was run?
Answer: 7.74

Question: How did the pIC50 turn out when `N#Cc1ccc(NC2(C(=O)N3CCN(c4nccc(C(F)(F)F)n4)CC3)CCCC2)cc1` [Compound 18, 4-((1-(4-(4-(trifluoromethyl)pyrimidin-2-yl)piperazine-1-carbonyl)cyclopentyl)amino) benzonitrile] was run?
Answer: 7.42

Question: How did the pIC50 turn out when `N#Cc1ccc(NC2(C(=O)N3CCN(c4ccc(C(F)(F)F)nn4)CC3)CCCC2)cc1` [Compound 19, 4-((1-(4-(6-(trifluoromethyl)pyridazin-3-yl)piperazine-1-carbonyl)cyclopentyl)amino) benzonitrile] was run?
Answer: 7.06

Question: With `N#Cc1ccc(NC2(C(=O)N3CCN(c4ccc(C(F)(F)F)nn4)CC3)CCCC2)cc1Cl` [Compound 22, 2-chloro-4-((1-(4-(6-(trifluoromethyl)pyridazin-3-yl)piperazine-1-carbonyl)cyclopentyl)amino)benzonitrile] as the compound, how does the pIC50 read?
Answer: 6.12

Question: How did the pIC50 turn out when `N#Cc1ccc(NC2(C(=O)N3CCN(c4ccc(C(F)(F)F)s4)CC3)CCCC2)cc1` [Compound 24, 4-((1-(4-(5-(trifluoromethyl)thien-2-yl)piperazine-1-carbonyl)cyclopentyl)amino)benzonitrile] was run?
Answer: 6.24

Question: How did the pIC50 turn out when `N#Cc1ccc(NC2(C(=O)N3CCN(c4ncc(C(F)(F)F)s4)CC3)CCCC2)cc1` [Compound 25, 4-((1-(4-(5-(trifluoromethyl)thiazol-2-yl)piperazine-1-carbonyl)cyclopentyl)amino)benzonitrile] was run?
Answer: 6.06

Question: How did the pIC50 turn out when `Cn1ccc(N2CCN(C(=O)C3(Nc4ccc(C#N)cc4)CCCC3)CC2)n1` [Compound 26, 4-((1-(4-(1-methyl-1H-pyrazol-3-yl)piperazine-1-carbonyl)cyclopentyl)amino)benzonitrile] was run?
Answer: 5.55

Question: With `C#Cc1ccc(NC2(C(=O)N3CCN(c4cccc(C(F)(F)F)n4)CC3)CCCC2)cc1` [Compound 27, 4-((1-(4-(6-(trifluoromethyl)pyridin-2-yl)piperazine-1-carbonyl)cyclopentyl)amino)phenylacetylene] as the compound, how does the pIC50 read?
Answer: 6.25

Question: `N#Cc1ccc(NC2(C(=O)N3C[C@H]4CC[C@@H](C3)N4c3cccc(C(F)(F)F)n3)CCCC2)cc1` [Compound 28, 4-((1-(8-(6-(trifluoromethyl)pyridin-2-yl)-3,8-diazabicyclo[3.2.1]octane-3-carbonyl)cyclopentyl)amino)benzonitrile] was tested. Which pIC50 did it give?
Answer: 7.82

Question: How did the pIC50 turn out when `N#Cc1ccc(NC2(C(=O)N3CC4CCC3CN4c3cccc(C(F)(F)F)n3)CCCC2)cc1` (stereo not drawn) [Compound 29, 4-((1-(5-(6-(trifluoromethyl)pyridin-2-yl)-2,5-diazabicyclo[2.2.2]octane-2-carbonyl)cyclopentyl)amino)benzonitrile] was run?
Answer: 7.59

Question: How did the pIC50 turn out when `N#Cc1ccc(NC2(C(=O)N3CCN(CC4CCCC4)CC3)CCCC2)cc1` [Compound 30, 4-((1-(4-(cyclopentanemethyl)piperazine-1-carbonyl)cyclopentyl)amino)benzonitrile] was run?
Answer: 7.27

Question: With `CC(C)CC1CCN(C(=O)C2(Nc3ccc(C#N)cc3)CCCC2)CC1` [Compound 32, 4-((1-(4-(isobutyl)piperidine-1-carbonyl)cyclopentyl)amino)benzonitrile] as the compound, how does the pIC50 read?
Answer: 6.27

Question: How did the pIC50 turn out when `N#Cc1ccc(NC2(C(=O)N3CCC(C4CCCC4)CC3)CCCC2)cc1` [Compound 33, 4-((1-(4-(cyclopentyl)piperidine-1-carbonyl)cyclopentyl)amino)benzonitrile] was run?
Answer: 7.04

Question: `N#Cc1ccc(NC2(C(=O)N3CCC4(CCCC4)CC3)CCCC2)cc1` [Compound 34, 4-((1-(8-aza-spiro[4.5]decane-8-carbonyl)cyclopentyl)amino)benzonitrile] was tested. Which pIC50 did it give?
Answer: 6.54

Question: How did the pIC50 turn out when `N#Cc1ccc(NC2(C(=O)N3CCC(C4CCCCC4)CC3)CCCC2)cc1` [Compound 35, 4-((1-(4-(cyclohexyl)piperidine-1-carbonyl)cyclopentyl)amino)benzonitrile] was run?
Answer: 7.07

Question: How did the pIC50 turn out when `C#Cc1ccc(NC2(C(=O)N3CCC(C(C)(C)C)CC3)CCCC2)cc1` [Compound 36, 4-((1-(4-(tert-butyl)piperidine-1-carbonyl)cyclopentyl)amino)phenylacetylene] was run?
Answer: 5.90
